Consider 19 molecules from patent US12551492B2, “Enthesis healing” (UNIVERSITY OF UTAH RESEARCH FOUNDATION, priority 2020, dated 2026).

Read-outs that look alike come from different tables or passages of the source.

The conditions of data set [1]: cited from earlier work.
For another data set, the system named is rotator cuff enthesis. The data set can be described thus: Mouse rotator cuff repair, histological analyses four weeks post-operatively. It is filed as in vivo, male wild type mice. The text has this: (§1) Twenty-nine male wild type mice were randomly divided into three study groups. Group 1 (Control) consisted of unoperated mice which provided intact “control” shoulders with normal rotator cuff tendons. Group 2 (Repair Only) was a surgical repair group injected with the drug carrier used in Group 3. Group 3 (Repair+DES) was a surgical repair group injected with diethylstilbestrol (DES). Twenty-three mice were sacrificed four weeks post-operatively and used for histological analyses including scanning electron & light microscopy. The six remaining mice (n=3 Repair Only and n=3 Repair+DES) were sacrificed at 2 weeks for RNA expression analysis of various chondrogenic, angiogenic, osteogenic, tendon maturation/modulation, and hormonal genes.

Data set [2] deals with chondrogenic, angiogenic, osteogenic, tendon maturation/modulation, and hormonal genes. The data set can be described thus: Mouse rotator cuff repair, RNA expression analysis at 2 weeks. It is filed as in vivo, male wild type mice. The note with it: Repair+DES vs Repair Only, p<0.02.
Source text: as §1

Data set [3] is described as follows: Multi-payor national database study: infection after rotator cuff repair. Format: in vivo. The note with it: patients receiving testosterone replacement vs non-testosterone replacement patients, adjusted. As to the method:
A study within a multi-payor large national database with over 160 million individuals was conducted including 292,666 patients who underwent RCR and an equal number of controls matched for age, sex, year of surgery, and years within the database.
The higher testosterone levels found in males as compared to females increase the presence of Cutibacterium acnes on the skin.

The test system of a further data set is rotator cuff repair. The note with it: mouse and rat models; cited from earlier work.
The mark [4] stands for this setting: Table 1, available forms of estrogen.
Setting [5] is: Table 2, available forms of testosterone.

For the molecule `CCN(CC)CCOc1ccc(C(=C(Cl)c2ccccc2)c2ccccc2)cc1` [Clomiphene (SERM), Clomiphene], the Half-life in data set [1] (setting [4]) is given as 5 days.

With `CC/C(=C(/CC)c1ccc(O)cc1)c1ccc(O)cc1` [DES, diethylstilbestrol], the “areas of calcified and uncalcified fibrocartilage” value in the data set on rotator cuff enthesis (Repair Only vs Control and Repair+DES, p<0.03) is recorded as “significantly greater in the Repair Only group”. Further, the “bone formation within the humeral head” value in the data set with rotator cuff enthesis (Repair+DES vs Repair Only and Control (intact tendon), p<0.001) is on record as “increase of bone formation”. For the same molecule, the “osteogenic, angiogenic, and tendon modulation gene expression” value in data set [2] was “further increased”.

`C[C@](O)(COc1ccc(C#N)cc1)C(=O)Nc1ccc(C#N)c(C(F)(F)F)c1` [Enobosarm]: the Half-life in data set [1] (setting [5]) was 0.0694 days.

Turning to `C[C@]12CC[C@@H]3c4ccc(OC(=O)c5ccccc5)cc4CC[C@H]3[C@@H]1CC[C@@H]2O` [Estradiol benzoate], in data set [1] (setting [4]), the Half-life is 2 to 5 days.

As for `C[C@]12CC[C@@H]3c4ccc(O)cc4CC[C@H]3[C@@H]1CC[C@@H]2OC(=O)CCC1CCCC1` [Estradiol cypionate], the Half-life in data set [1] (setting [4]) was 8 to 10 days.

As for `CCC(=O)Oc1ccc2c(c1)CC[C@@H]1[C@@H]2CC[C@]2(C)[C@@H](OC(=O)CC)CC[C@@H]12` [Estradiol dipropionate], in data set [1] (setting [4]), the Half-life was above 5 days.

As for `CCCCCCC(=O)O[C@H]1CC[C@H]2[C@@H]3CCc4cc(O)ccc4[C@H]3CC[C@]12C` [Estradiol enanthate], the Half-life in data set [1] (setting [4]) is 5 to 8 days.

`CCCCCCCCCCC(=O)O[C@H]1CC[C@H]2[C@@H]3CCc4cc(O)ccc4[C@H]3CC[C@]12C` [Estradiol undecylate]: in data set [1] (setting [4]), the Half-life is given as 1-2 mon.

In the case of `CCCCC(=O)O[C@H]1CC[C@H]2[C@@H]3CCc4cc(O)ccc4[C@H]3CC[C@]12C` [Estradiol valerate], the Half-life in data set [1] (setting [4]) was 4 to 5 days.

`N#Cc1ccc(N2CCC[C@@H]2[C@@H](O)C(F)(F)F)cc1C(F)(F)F` [Ligandrol]: the Half-life in data set [1] (setting [5]) is 1 to 1.5 days.

Turning to `CC/C(=C(\c1ccccc1)c1ccc(OCCN(C)C)cc1)c1ccccc1` [Tamoxifen (SERM), Tamoxifen], the Half-life in data set [1] (setting [4]) was 5 to 7 days.

Consider `C[C@]12CC[C@H]3[C@@H](CCC4=CC(=O)CC[C@@]43C)[C@@H]1CC[C@@H]2OC(=O)CCC1CCCC1` [Testosterone cypionate], for which, in data set [1] (setting [5]), the Half-life is 8 days.

Regarding `CCCCCCC(=O)O[C@H]1CC[C@H]2[C@@H]3CCC4=CC(=O)CC[C@]4(C)[C@H]3CC[C@]12C` [Testosterone enanthate], the Half-life in data set [1] (setting [5]) is 4.5 days.

Turning to `CCC(=O)O[C@H]1CC[C@H]2[C@@H]3CCC4=CC(=O)CC[C@]4(C)[C@H]3CC[C@]12C` [Testosterone propionate], the Half-life in data set [1] (setting [5]) is listed as 2 days.

Turning to `CCCCCCCCCCC(=O)O[C@H]1CC[C@H]2[C@@H]3CCC4=CC(=O)CC[C@]4(C)[C@H]3CC[C@]12C` [Testosterone undecanoate (PO), Testosterone undecanoate], the Half-life is 0.0694 days in data set [1] (setting [5]) and 34 days in data set [1] (Table 2, available forms of testosterone, listed as Testosterone undecanoate (IM)).

As for `C[C@]12CC[C@H]3[C@@H](CCC4=CC(=O)CC[C@@]43C)[C@@H]1CC[C@@H]2O` [testosterone], the “increase in risk of having an infection after an RCR” value in data set [3] is on record as 75%.

For the molecule FGF-2: fibroblast growth factor 2, the “histologic or biomechanical characteristics after rotator cuff repair” value with rotator cuff repair is “positively influence histologic or biomechanical characteristics”.

“TGF-beta1: transforming growth factor beta1”: the “histologic or biomechanical characteristics after rotator cuff repair” value with rotator cuff repair is “positively influence histologic or biomechanical characteristics”.

B1: PDGF-BB: platelet derived growth factor-BB (protein, UniProt P01127 82-190, looked up)
Platelet-derived growth …: SLGSLTIAEPAMIAECKTRTEVFEISRRLIDRTNANFLVWPPCVEVQRCSGCCNNRNVQCRPTQVQLRPVQVRKIEIVRKKPIFKKATVTLEDHLACKCETVAAARPVT
As for B1, in the data set with rotator cuff repair, the “histologic or biomechanical characteristics after rotator cuff repair” value was “positively influence histologic or biomechanical characteristics”.
